Assay [1] relates to biofilm matter in clothing. The assay is described as follows: UV light visualization of fluorescence of suspected biofilm matter in clothing (optical brightener / Calcofluor White). The protocol: Three UV lamps were used in testing fluorescence in potential biofilms. These included a Lightfe® UV301D lamp providing a beam at 365 nm, a UVBeast V3 lamp operating at 395 nm, and a UV Nova 108-LED UV lamp operating at 395 nm.
In one approach, biofilm candidates were stained using Calcofluor White M2R dye, a fluorescent brightener purchased from Phyto Technology Laboratories (Shawnee Mission, Kansas), CAS No. 4404-43-7. A solution was prepared of 0.074% Calcofluor white in water, and given the name CF1.
In examining fluorescence, it was eventually noted that both an SLR camera and an iPhone camera could not easily capture the fine details of fluorescence when using any of the UV lamps available for this study, probably because the fluorescence, including some background fluorescence, may have interfered with the camera's visible light operations. […] A rubber band was sufficient for holding it in place.

Assay [2] relates to persistent odor (perma-odor) in clothing. The assay is described as follows: Odor evaluation of treated clothing by smelling (odor level on a scale of 0 to 5).
The subject of assay [3] is darkened regions believed to be biofilm remnants in clothing. The experiment in a line: Visible-light inspection of darkened or yellow regions in clothing. The settings on record: shirt CH1; left pit 6 g 2.1% NAC then 1.95 g E3; right pit 2.1 g E3 without NAC; about 20 min, short cycle 30°C Purex. The source says: FIG. 10A depicts the left pit of shirt CH1 in visible light after the treatments described previously (as well as the treatment with optical brighter). A dark region 202 is still present that appears to come from within the fabric rather than resting on its surface. It is believed to come from biofilm material such as polysaccharides, proteins, and genetic material, that is capable of adhering to optical brighteners such as CF1 solution. FIG. 10B depicts the same region in UV light using the UVBeast V3 lamp. The dark region 202 of FIG. 10A is now a fluorescent region 204 with the appearance of a purple color, believed to result from Calcofluor White fluorescence couple with the dark matter's blocking of the fluorescence of the shirt material itself. […] The fluorescence in CH1 was bright enough to be detected even with the orange dye of the shirt brightly fluorescing at the same time.

The source of these data is patent US12157869B2, “Methods and compositions for reducing persistent odor in clothing and mitigating biofilms on various materials” (priority 2019, dated 2024).

Counter-ions that a name gives are not always drawn.

As for `CC(=O)N[C@@H](CS)C(=O)O` [NAC, N-acetyl cysteine], the “fluorescent zones after wash” value in assay [1] (shirt BD1, right pit 2.1% NAC (pH 4) then E3C) is “slightly decreased in intensity”. Moreover, in assay [1] (shirt BD1, right pit 5.2 g 2.1% NAC pH 6.4 then 3.0 g E3D, left pit water then 3.28 g E3D, about 33°C 2 hours, full cycle 40°C Tide), the “intensity of fluorescent zones after wash” value is recorded as “may have decreased slightly”. Also, in assay [1] (shirt CH1, 2.1% NAC then E3, wash, Lightfe UV301D 365 nm), the “fluorescence after CF1 staining, left pit” value is “perhaps weaker than initially seen”. The fluorescence after wash result in assay [1] (shirt RA1, left pit 4.54 g 2.1% NAC then 10.7 g E3D, right pit 9.2 g E3D only, about 33°C 2 hours, short cycle 30°C Purex) is listed as “significant reduction in fluorescence”. Besides, the “residual fluorescence, lower versus upper half of left pit” value in assay [1] (shirt RA1, lower half 2.15% NAC (pH 6.4 and 9.17), upper half water, both CellulaseC 5.6 g and AmylaseA 1.94 g, about 28°C 30 min) is on record as “declined more strongly”. For the same compound, the “odor after one work day, shirt AA left pit” value in assay [2] (2.1% NAC and NIC, wash) was “remained smelling fresh”. Further, the “odor after one work day, shirt AA right pit” value in assay [2] (2.1% NAC, NIC and 2 g E2, wash) is reported as “smell again”. Further, the “owner's report after wash and exercise, shirt WL” value in assay [2] (left pit 4.8 g 2% NAC (pH 7.8), 2 min, 6.5 g NIC, 10 min, 5 g NIC, liquid Tide) is “substantial improvement”. For the same compound, the “odor after heavy exercise, shirt RL” value in assay [2] (right pit 2% NAC pH 7.8 then NIC, left pit NIC only, washed) is reported as “strong odor”. The “odor level after washing and exercise, shirt BL right pit” value in assay [2] (right pit 2.1% NAC, EGCD-2, left pit about 2, scale of 0 to 5) is recorded as roughly 1. Moreover, the “odor after washing and exercise, shirt WL” value in assay [2] (right pit 2.1% NAC, EGCD-B, NIC) is listed as “very little odor”. For the same compound, in assay [2] (right pit 2.1% NAC, EGCD-B, NIC, both pits about the same, scale of 0 to 5), the “odor level after washing and exercise, shirt RL” value was “about 2”. Further, the “odor following exercise, shirt AB” value in assay [2] (right pit 8.2 g 2.1% NAC, 3.3 g NIC, 5.4 g LPS1, wash) is “smell better in general”. Besides, the “residual odor after wash, shirt RL” value in assay [2] (right pit 9.1 g 2% NAC pH 7.8, 11 min, 5.8 g NIC, left pit 10 g NIC only) is listed as “appeared to have been eliminated”. Besides, in assay [2] (shirt BD1 right pit, 5.2 g 2.1% NAC (pH 4) then 2.9 g E3C, Purex, about 3 before, untreated left pit about 1, scale of 1 to 5), the “odor level after washing and drying” value is reported as 0. The “odor after handwash and air drying” value in assay [2] (shirt CH1, right pit 3.2% NAC solution (2 g outside and inside), 2 min, then NIC 4.83 g, left pit NIC only 7.4 g, 5 min) was “smelled better than the left”. In addition, the “odor intensity after exercise and 48 hours storage at room temperature” value in assay [2] (shirt CH1, right pit second treatment: 8 ml NAC solution (600 mg effervescent tablet in 100 ml) then 5.3 ml EGCD-A, 20 min, left pit earlier NIC only, 0 to 5 scale) is reported as 2 to 3. For the same compound, the “odor rating after further exercise, left pit” value in assay [2] (shirt CH1 left pit, 10 g 2% NAC solution 10 min, 9 g NIC 15 min, rinse, wash (Bright Blue Moon), scale 0 to 5) fell in the range of 2 to 3. Besides, the “odor after exercise relative to left pit” value in assay [2] (shirt CH1 right pit, 2% NAC solution, washed, odor level about 5 before) is “significantly reduced”. Also, the “odor level after washing” value in assay [2] (shirt CH1 right pit, 2.4 g pH 3.0 NAC solution, 5 min, short cycle with Bright Blue Moon, scale of 0 to 5) is reported as “about 0.5”. Besides, the “odor after handwash and drying” value in assay [2] (shirt CH1 right pit, 21 g 2% NAC solution, 5.94 g EGCD-A, 10 min, 7 g NIC, about 10 min) is on record as “no odor”. Further, the “odor rating after further exercise, right pit” value in assay [2] (shirt CH1 right pit, earlier NAC, EGCD-A and NIC treatments, scale 0 to 5) is recorded as “about 1”. For the same compound, the “odor after washing and air drying” value in assay [2] (shirt Dec1 right pit, 1.6 g of 1.8% NAC solution (pH about 2), then standard wash with Bright Blue Moon enzymatic detergent) is on record as “some odor”. The “odor of treated pits after wash” value in assay [2] (shirts AA, AB, AC, 2.1% NAC solution, about 10 min, then NIC (some pits also E2 or LPS1), 15 min, wash with Bright Blue Moon, versus untreated pits or pits without NAC) is “smelled better than before”. For the same compound, the odor after washing entry in assay [2] (shirts RL, BL, WL right pits, 2.1% NAC solution 12-13.5 g, then EGCD-B or EGCD-2, then NIC (RL, WL), owner's report) is “significantly reduced odor”. Further, the “darkened regions after wash” value in assay [3] is recorded as “perhaps slightly lighter”.
As to `O=C(O)CC(O)(CC(=O)O)C(=O)O` [sodium citrate], the “fluorescence of previously treated pits” value in assay [1] (shirt RA1, 12% sodium citrate solution 7 g then 1.72 g E3D, about 30°C 3 hours, Lemon Brite) is “only very slight improvement at best”. Moreover, the reddish fluorescent zone entry in assay [1] (shirt RA1, 12% sodium citrate solution then E3D) is recorded as “significant reduction”. Further, the “fluorescence of previously untreated spot” value in assay [1] (shirt RA1, 12% sodium citrate solution then E3D, about 30°C 3 hours, also slightly smaller in extent) is reported as “significantly reduced in brightness”. The “fluorescence of two zones of right pit” value in assay [1] (shirt RA1, each about 2.3 g 12% citrate solution, lower zone also 1.86 g E3D, 40-45°C two hours) is listed as “only little reduction in fluorescence”.
